Laboratory results as given in ChEMBL document CHEMBL1201862, “PubChem BioAssay data set” (2004).
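1) Cells in 96-well plates. 2) Compound, 48 h, 5 concentrations. 3) Linear interpolation between surrounding doses. 4) Unreached endpoint = highest concentration. GI50 marks 50% less growth.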 Active and inactive are the calls of the source. No stated cut-off is given here; in the data, active = GI50 up to about 1.1 µM and inactive = higher.

Columns and labels:
Test in all cases: DTP human tumour cell line panel, 48 h
[1] = system: MCF7
[2] = system: CCRF-CEM
[3] = system: UACC-257
[4] = system: LOX IMVI
[5] = system: SW-620
[6] = system: SF-295
[7] = system: NCI-H226
[8] = system: CAKI-1
[9] = system: HT-29
[10] = system: KM12
[11] = system: SNB-19
[12] = system: RXF 393
[13] = system: COLO 205
[14] = system: Hs-578T
[15] = system: 786-0
[16] = system: M14
[17] = system: PC-3
[18] = system: TK-10
[19] = system: MDA-N
[20] = system: MDA-MB-435

SMILES	GI50 [1]	GI50 [2]	GI50 [3]	GI50 [4]	GI50 [5]	GI50 [6]	GI50 [7]	GI50 [8]	GI50 [9]	GI50 [10]	GI50 [11]	GI50 [12]	GI50 [13]	GI50 [14]	GI50 [15]	GI50 [16]	GI50 [17]	GI50 [18]	GI50 [19]	GI50 [20]
O=NN(CCCl)C(=O)N[C@H]1CC[C@@H](CC(=O)O)CC1	> 100 µM (inactive)	28.6 µM (inactive)	> 100 µM (inactive)	> 54.2 µM (inactive)	> 100 µM (inactive)	67.5 µM (inactive)	> 100 µM (inactive)	> 100 µM (inactive)	> 100 µM (inactive)	> 100 µM (inactive)	99.3 µM (inactive)	> 100 µM (inactive)	> 100 µM (inactive)	–	–	–	–	–	–	–
NC(=O)c1cnc2sc3ccccc3n2c1=O	> 100 µM (inactive)	> 100 µM (inactive)	> 100 µM (inactive)	> 100 µM (inactive)	> 100 µM (inactive)	> 100 µM (inactive)	34.5 µM (inactive)	> 100 µM (inactive)	> 100 µM (inactive)	> 100 µM (inactive)	> 100 µM (inactive)	> 100 µM (inactive)	> 100 µM (inactive)	26.4 µM (inactive)	> 100 µM (inactive)	> 100 µM (inactive)	> 100 µM (inactive)	> 100 µM (inactive)	> 100 µM (inactive)	–
N#C/C(N)=C(C#N)/N=C/N	> 100 µM (inactive)	> 100 µM (inactive)	> 100 µM (inactive)	> 100 µM (inactive)	> 100 µM (inactive)	> 100 µM (inactive)	–	–	> 100 µM (inactive)	> 100 µM (inactive)	–	–	> 100 µM (inactive)	> 100 µM (inactive)	> 100 µM (inactive)	> 100 µM (inactive)	> 100 µM (inactive)	> 100 µM (inactive)	> 100 µM (inactive)	> 100 µM (inactive)
CCOC(=O)NC(NCC(O)c1ccccc1)(C(F)(F)F)C(F)(F)F (centres undefined)	> 100 µM (inactive)	> 100 µM (inactive)	> 100 µM (inactive)	> 100 µM (inactive)	> 100 µM (inactive)	–	> 100 µM (inactive)	> 100 µM (inactive)	> 100 µM (inactive)	> 100 µM (inactive)	> 100 µM (inactive)	43.4 µM (inactive)	–	> 100 µM (inactive)	–	> 100 µM (inactive)	–	> 100 µM (inactive)	> 100 µM (inactive)	> 100 µM (inactive)
COc1ccc(S(=O)(=O)NC(CCC(=O)NN)C(=O)NN)cc1 (centres undefined)	> 100 µM (inactive)	> 100 µM (inactive)	> 100 µM (inactive)	> 100 µM (inactive)	> 100 µM (inactive)	> 100 µM (inactive)	–	> 100 µM (inactive)	> 100 µM (inactive)	> 100 µM (inactive)	> 100 µM (inactive)	–	> 100 µM (inactive)	> 100 µM (inactive)	> 100 µM (inactive)	> 100 µM (inactive)	> 100 µM (inactive)	> 100 µM (inactive)	> 100 µM (inactive)	> 100 µM (inactive)
CC(C)(C)[Si](C)(C)OCCCCC1CC2(S(=O)(=O)C3=CC=C=C=C3)ON1CC2S(=O)(=O)c1ccccc1 (centres undefined)	> 100 µM (inactive)	–	84.9 µM (inactive)	–	> 100 µM (inactive)	–	> 100 µM (inactive)	–	> 100 µM (inactive)	> 100 µM (inactive)	> 100 µM (inactive)	> 100 µM (inactive)	> 100 µM (inactive)	> 100 µM (inactive)	> 100 µM (inactive)	> 100 µM (inactive)	–	> 100 µM (inactive)	> 100 µM (inactive)	> 100 µM (inactive)
Oc1c(/N=N/c2ccccc2)c2ccccc2c2ccc3ccccc3c12	> 100 µM (inactive)	43.9 µM (inactive)	> 100 µM (inactive)	–	> 100 µM (inactive)	50.5 µM (inactive)	> 100 µM (inactive)	48.6 µM (inactive)	> 100 µM (inactive)	> 100 µM (inactive)	> 100 µM (inactive)	56.1 µM (inactive)	> 100 µM (inactive)	62.8 µM (inactive)	44.6 µM (inactive)	57.5 µM (inactive)	73.8 µM (inactive)	> 100 µM (inactive)	–	> 100 µM (inactive)
CC[C@@]1(O)C(=O)OCc2c1cc1n(c2=O)Cc2c-1nc1ccccc1c2/C=N\NC(=O)C(N)CCSC (some centres undefined)	< 0.01 µM (active)	< 0.01 µM (active)	0.228 µM (active)	< 0.01 µM (active)	0.0883 µM (active)	< 0.01 µM (active)	< 0.016 µM (active)	< 0.01 µM (active)	0.266 µM (active)	0.254 µM (active)	< 0.01 µM (active)	< 0.0146 µM (active)	1.24 µM (inactive)	–	< 0.01 µM (active)	< 0.0121 µM (active)	0.13 µM (active)	6.4 µM (inactive)	0.224 µM (active)	0.108 µM (active)
